Legend:
[1] = tested on: genes comprising a PPAR response element; conditions: cited from earlier work
PPARγ-RXRα heterodimer = PPARγ-RXRα heterodimer formation assay; type: biochemical
[2] = tested on: human PPAR response element (PPRE); assay: PPRE reporter assay in HepG2 cells; type: cell-based
COS7 cells = assay: Toxicity assay; type: cell-based; conditions: up to 100 μM, 24 h
HepG2 cells = assay: Differential gene expression; type: cell-based; conditions: 20 μM
PPARγ LBD [3] = target: T1, PPARγ LBD (Homo sapiens, UniProt P37231); type: biochemical
T1 sequence (P37231 238-503 limits assumed): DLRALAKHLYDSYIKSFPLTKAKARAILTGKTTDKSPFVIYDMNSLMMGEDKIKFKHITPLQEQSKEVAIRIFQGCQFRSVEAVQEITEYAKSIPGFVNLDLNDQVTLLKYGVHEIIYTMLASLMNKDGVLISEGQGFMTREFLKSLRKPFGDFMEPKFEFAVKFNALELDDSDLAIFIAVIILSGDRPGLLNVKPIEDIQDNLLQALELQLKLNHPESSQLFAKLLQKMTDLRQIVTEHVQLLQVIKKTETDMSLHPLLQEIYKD

nuclear receptors = assay: Selectivity profiling in Gal4-hybrid reporter gene assays; type: cell-based, human; conditions: 100 μM
PPARγ LBD [4] = target: T1, PPARγ LBD; type: binding
[5] = tested on: human adipocyte-derived stem cells (ASC; ASC52telo, hTERT); assay: Adipocyte-derived stem cell differentiation; type: cell-based
FOXO3a = FOXO3a Ser253 phosphorylation; type: cell-based; conditions: 20 μM, 16 h
FOXO = assay: FoxO response element; type: cell-based; conditions: HepG2 cells, over time
PPARγ LBD [6] = target: T1, PPARγ LBD; assay: MS-based PPARγ ligand binding assay; conditions: 0.2–4 μM, absence and presence of 1 μM pioglitazone

Compound: CCc1ccc(CCOc2ccc(CC3SC(=O)NC3=O)cc2)nc1 (centres unmarked) [pioglitazone, reference compound]
- FOXO signaling-related gene expression [1]: no effect
- PPARγ:RXR heterodimerization (PPARγ-RXRα heterodimer): enhanced

Compound: O=C(O)CSc1nc(Cl)cc(Nc2cccc(OCCc3ccccc3)c2)n1 [compound 2]
- transcriptional activity via PPRE ([2]; alone): induced transcriptional activity
- pioglitazone-mediated PPRE activation ([2]; with pioglitazone): enhanced pioglitazone-mediated PPRE activation
- cytotoxic effects (apoptosis, necrosis) (COS7 cells): no cytotoxic effects
- canonical PPAR signaling (gene expression) (HepG2 cells): no induction
- number of protein coding genes with significantly altered expression (HepG2 cells; p-value <0.05, |log2(fold change)| > 1): 1750
- CBP-1 recruitment (PPARγ LBD [3]): displaced
- DRIP2 recruitment (PPARγ LBD [3]): displaced
- NCOR recruitment (PPARγ LBD [3]): enhanced binding
- NCoA6 recruitment (PPARγ LBD [3]): weaker recruitment
- PGC-1α recruitment (PPARγ LBD [3]): weaker recruitment
- SMRT recruitment (PPARγ LBD [3]): enhanced binding
- agonism / antagonism on nuclear receptors (nuclear receptors): neither revealed agonism nor antagonistic effects
- thermal stabilization of the PPARγ LBD (PPARγ LBD [4]): additive thermal stabilization
- pioglitazone-induced adipogenesis [5]: diminished
- adipogenesis (ASC differentiation) ([5]; 50 μM): did not cause adipogenesis
- PPARγ:RXR heterodimerization (PPARγ-RXRα heterodimer): decreased heterodimer formation
- dimer stabilization by pioglitazone (PPARγ-RXRα heterodimer): abrogated
- phosphorylation of FOXO3a at Ser253 (FOXO3a): promoted phosphorylation
- transcriptional activity of FOXO (FHRE activity) (FOXO): diminished
- binding of 2 to the PPARγ LBD (PPARγ LBD [6]): dose-dependent manner

Compound: CC1(C)CCC(C)(C)c2cc(C3(c4ccc(C(=O)O)cc4)OCCO3)ccc21 [SR11237, reference compound]
- PPARγ:RXR heterodimerization (PPARγ-RXRα heterodimer): enhanced

Source: paper PMC10347545 (Journal of the American Chemical Society, 2023)
